From patent US8481540B2, “Inhibitors of bruton's tyrosine kinase” (Hoffmann-La Roche Inc., priority 2010, dated 2013)

Assays:
B cells in human blood = experiment: Inhibition of B cell activation in whole blood measured by CD69 expression; type: cell-based; details: CD69-positive, CD20-positive cells after anti-IgM stimulation, human whole blood, 20 hours, read-out: Human Whole Blood
Procedure, shortened: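 Heparinised human whole blood was preincubated with compound (nine-point, three-fold dilutions) for 30 min at 37 °C. It was then stimulated with 50 μg/ml goat F(ab′)2 anti-human IgM for 20 hours. CD20/CD69 staining, red-cell lysis and flow cytometry gave percent CD69-positive cells, from which IC50 values were calculated.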

| SMILES | IC50 (B cells in human blood) | melting point |
| --- | --- | --- |
| Cn1nc(-c2cccc(-n3ncc4cc(C(C)(C)C)cc(F)c4c3=O)c2CO)cc(Nc2ccc(CN3CCC3)cn2)c1=O [I-7, 2-{3-[5-(5-Azetidin-1-ylmethyl-pyridin-2-ylamino)-1-methyl-6-oxo-1,6-dihydro-pyridazin-3-yl]-2-hydroxymethyl-phenyl}-6-tert-butyl-8-fluoro-2H-phthalazin-1-one] | 0.02 µM | 160 to 163 °C |
| COC1CN(Cc2ccc(Nc3cc(-c4cccc(-n5ncc6cc(C(C)(C)C)cc(F)c6c5=O)c4CO)nn(C)c3=O)nc2)C1 [I-4, 6-tert-Butyl-8-fluoro-2-(2-hydroxymethyl-3-{5-[5-(3-methoxy-azetidin-1-ylmethyl)-pyridin-2-ylamino]-1-methyl-6-oxo-1,6-dihydro-pyridazin-3-yl}-phenyl)-2H-phthalazin-1-one] | 0.122 µM | 140 to 142 °C |
| CN1CCN(c2cnc(Nc3cc(-c4cccc(-n5ncc6cc(C(C)(C)C)cc(F)c6c5=O)c4CO)nn(C)c3=O)cn2)CC1 [I-34, 6-tert-Butyl-8-fluoro-2-{2-hydroxymethyl-3-[1-methyl-5-(4-methyl-3,4,5,6-tetrahydro-2H-[1,2′]bipyrazinyl-5′-ylamino)-6-oxo-1,6-dihydro-pyridazin-3-yl]-phenyl}-2H-phthalazin-1-one] | 0.125 µM | 235 to 240 °C |
| CN1[C@@H]2CC[C@H]1CN(Cc1ccc(Nc3cc(-c4cccc(-n5ncc6cc(C(C)(C)C)cc(F)c6c5=O)c4CO)nn(C)c3=O)nc1)C2 [I-5, 6-tert-Butyl-8-fluoro-2-(2-hydroxymethyl-3-{1-methyl-5-[5-(8-methyl-3,8-diaza-bicyclo[3.2.1]oct-3-ylmethyl)-pyridin-2-ylamino]-6-oxo-1,6-dihydro-pyridazin-3-yl}-phenyl)-2H-phthalazin-1-one] | 0.025 µM | 162 to 165 °C |

Other lines, results leading:

| IC50 (B cells in human blood) | melting point | SMILES |
| --- | --- | --- |
| 0.002 µM | 214 to 217 °C | Cn1nc(Nc2cc(-c3cccc(-n4ncc5cc(C(C)(C)C)cc(F)c5c4=O)c3CO)nn(C)c2=O)cc1CN1CCC1 [I-58] |
| 0.018 µM | 245 to 247 °C | CCN1CCN(c2ccc(Nc3cc(-c4cccc(-n5ncc6cc(C(C)(C)C)cc(F)c6c5=O)c4CO)nn(C)c3=O)nc2)CC1 [I-69, 6-tert-Butyl-2-(3-{5-[5-(4-ethyl-piperazin-1-yl)-pyridin-2-ylamino]-1-methyl-6-oxo-1,6-dihydro-pyridazin-3-yl}-2-hydroxymethyl-phenyl)-8-fluoro-2H-phthalazin-1-one] |
| 0.004 µM | 180 to 185 °C | Cn1nc(-c2cccc(-n3ncc4cc(C(C)(C)C)cc(F)c4c3=O)c2CO)cc(Nc2cc3n(n2)CCN(C2COC2)C3)c1=O [I-60] |
| 0.041 µM | 183 to 186 °C | CN1C[C@@H]2C[C@H]1CN2Cc1ccc(Nc2cc(-c3cccc(-n4ncc5cc(C(C)(C)C)cc(F)c5c4=O)c3CO)nn(C)c2=O)nc1 [I-43, 6-tert-Butyl-8-fluoro-2-(2-hydroxymethyl-3-{1-methyl-5-[5-((1S,4S)-5-methyl-2,5-diaza-bicyclo[2.2.1]hept-2-ylmethyl)-pyridin-2-ylamino]-6-oxo-1,6-dihydro-pyridazin-3-yl}-phenyl)-2H-phthalazin-1-one] |
